Reference: patent publication US5601801A, “Radiolabelled angiotensin converting enzyme inhibitors” (Merck Frosst Canada, Inc., priority 1994, dated 1997)
Where two headings read alike, the source gives them in different places.

Target: T1, angiotensin converting enzyme (ACE) (Oryctolagus cuniculus, UniProt P12822)
T1 construct: a slurry of 10 g of lyophilized rabbit lung powder (Pel-Freez); tissue Pel-Freez; host or cells: rabbit lung (lyophilized powder, buffer extract)
T1 sequence (P12822 34-1310): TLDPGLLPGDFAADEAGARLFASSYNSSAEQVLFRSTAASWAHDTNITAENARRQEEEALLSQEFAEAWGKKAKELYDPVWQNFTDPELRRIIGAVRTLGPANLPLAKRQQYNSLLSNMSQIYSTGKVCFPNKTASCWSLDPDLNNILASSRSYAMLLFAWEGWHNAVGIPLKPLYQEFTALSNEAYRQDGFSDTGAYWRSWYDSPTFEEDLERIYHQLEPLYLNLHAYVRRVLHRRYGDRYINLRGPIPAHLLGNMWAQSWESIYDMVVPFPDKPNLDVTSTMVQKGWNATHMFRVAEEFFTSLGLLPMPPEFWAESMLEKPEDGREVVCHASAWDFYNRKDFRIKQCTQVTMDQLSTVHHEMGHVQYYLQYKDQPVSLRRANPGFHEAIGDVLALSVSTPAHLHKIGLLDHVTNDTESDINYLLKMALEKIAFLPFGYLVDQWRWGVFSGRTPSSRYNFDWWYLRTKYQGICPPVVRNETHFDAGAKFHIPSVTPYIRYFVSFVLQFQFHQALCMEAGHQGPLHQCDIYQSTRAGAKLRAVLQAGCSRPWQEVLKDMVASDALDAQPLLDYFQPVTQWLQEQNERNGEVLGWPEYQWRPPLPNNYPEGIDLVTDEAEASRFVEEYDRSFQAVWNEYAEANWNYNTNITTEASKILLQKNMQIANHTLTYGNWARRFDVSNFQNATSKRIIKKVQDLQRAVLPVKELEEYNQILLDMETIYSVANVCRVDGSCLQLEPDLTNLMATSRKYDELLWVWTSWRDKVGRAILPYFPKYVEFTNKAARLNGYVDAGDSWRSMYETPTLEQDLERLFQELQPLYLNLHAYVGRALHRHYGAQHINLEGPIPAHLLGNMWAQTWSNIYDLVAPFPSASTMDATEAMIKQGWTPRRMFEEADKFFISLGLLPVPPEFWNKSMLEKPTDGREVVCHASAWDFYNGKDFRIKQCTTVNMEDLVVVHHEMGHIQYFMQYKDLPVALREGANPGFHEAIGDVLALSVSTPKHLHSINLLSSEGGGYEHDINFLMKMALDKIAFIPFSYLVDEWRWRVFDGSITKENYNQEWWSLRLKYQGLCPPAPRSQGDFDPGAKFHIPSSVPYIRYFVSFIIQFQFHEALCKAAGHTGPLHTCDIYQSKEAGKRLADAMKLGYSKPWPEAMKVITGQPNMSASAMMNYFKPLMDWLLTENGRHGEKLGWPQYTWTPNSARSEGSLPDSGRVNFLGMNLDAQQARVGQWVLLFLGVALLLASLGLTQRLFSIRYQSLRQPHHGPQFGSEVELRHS
Assay: IC50 Assay (Cushman and Cheung; hippuryl-L-histidyl-L-leucine hydrolysis by rabbit lung powder extract)
Assay type: biochemical
Description: According to the assay of Cushman and Cheung Biochem. Pharmacol 20, 1637, (1971), a slurry of 10 g of lyophilized rabbit lung powder (Pel-Freez) and 100 mL of 50 mM potassium phosphate buffer, pH 8.3, was blended for three one minute intervals followed by centrifugation for 40 minutes at 17,500 rpm. The clear supernatant was assayed for protein by the modified Lowry test and the volume of the rabbit lung powder extract (RLPE) was adjusted with buffer, 100 mM phosphate buffer prepared to yield a pH of 8.3 in the presence of 300 mM NaCl, to give 10-20 mU of angiotensin converting enzyme (ACE) activity in a 100 μL volume. The assay was carried out in 13×100 mm disposable culture tubes, with each assay tube containing 100 μL RLPE, 50 μL of a 12.5 mM solution of hippuryl-L-histidyl-L-leucine (HHL) (Sigma) in a buffer and 100 μL of inhibitor solution made up in buffer. The enzyme is added last to initiate the reaction and the tubes are incubated at 37° C. for one hour. The assay is terminated by the addition of 250 μL of 1M HCl to each tube; the HCl is added before the enzyme in the zero-time control assays. To each tube is added 1.5 mL of ethyl acetate followed by vortex mixing for 15 seconds. After the tubes have been centrifuged at 2,500 rpm for 5 minutes, 1 mL of the ethyl acetate layer is transferred to a clean 12×75 mm disposable culture tube. The ethyl acetate was evaporated by heating at 90° C. in a water bath for 30 minutes. Addition of 1 mL of water to each tube followed by vortex mixing for 15 seconds redissolves the hippuric acid. […]

A228 ± SD (-log[MIBA] 7.246) | A228 ± SD (-log[MIBA] 8.246) | A228 ± SD (-log[MIBA] 9.246) | A228 ± SD (-log[MIBA] 10.246) | A228 ± SD (-log[MIBA] 11.246) | IC50 (rabbit lung ACE, HHL substrate, pH 8.3, 37° C., one hour, read-out: IC50) [nM] | Structure (SMILES) | IC50 [nM] | A228 ± SD (-log[Lisin] 6.206) | A228 ± SD (-log[Lisin] 7.206) | A228 ± SD (-log[Lisin] 8.206) | A228 ± SD (-log[Lisin] 9.206) | A228 ± SD (-log[Lisin] 10.206)
0.025 ± 0.007 | 0.224 ± 0.016 | 1.196 ± 0.026 | 2.174 ± 0.047 | 2.360 ± 0.060 | 0.6 | O=C(NCCCC[C@H](N[C@@H](CCc1ccccc1)C(=O)O)C(=O)N1CCC[C@H]1C(=O)O)c1cccc(I)c1 [lisinopril MIBA] |  |  |  |  |  | 
 |  |  |  |  |  | NCCCC[C@H](N[C@@H](CCc1ccccc1)C(=O)O)C(=O)N1CCC[C@H]1C(=O)O [lisinopril, reference compound] | 5.4 | 0.029 ± 0.007 | 0.175 ± 0.007 | 0.946 ± 0.012 | 2.275 ± 0.031 | 2.371 ± 0.060
